We go through one molecule from ChEMBL document CHEMBL5316324, “Discovery, Characterization, and Engineering of LvIC, an α4/4-Conotoxin That Selectively Blocks Rat α6/α3β4 Nicotinic Acetylcholine Receptors” (J Med Chem, 2023).

Calls of active or inactive are those of the source. The rule behind the calls is not given here. Peptide text beside a SMILES is read from it.

The term IC50 denotes the concentration at which inhibition is half-maximal. For orientation: inhibition means the drop in the measured response relative to a control, in per cent.

For assay [1], the target named is Neuronal acetylcholine receptor; alpha3/beta2 (Rattus norvegicus, UniProt P04757+P12390). Nature of the assay: Inhibition of rat alpha3/beta2 nAChR expressed in Stage V-VI Xenopus laevis Oocytes assessed as inhibition of acetylcholine-induced current in presence of acetylcholine by electrophysiological recording. In kind it is cell-based, Oocyte.
Neuronal acetylcholine receptor; alpha3/beta2, sequence (P04757 whole entry): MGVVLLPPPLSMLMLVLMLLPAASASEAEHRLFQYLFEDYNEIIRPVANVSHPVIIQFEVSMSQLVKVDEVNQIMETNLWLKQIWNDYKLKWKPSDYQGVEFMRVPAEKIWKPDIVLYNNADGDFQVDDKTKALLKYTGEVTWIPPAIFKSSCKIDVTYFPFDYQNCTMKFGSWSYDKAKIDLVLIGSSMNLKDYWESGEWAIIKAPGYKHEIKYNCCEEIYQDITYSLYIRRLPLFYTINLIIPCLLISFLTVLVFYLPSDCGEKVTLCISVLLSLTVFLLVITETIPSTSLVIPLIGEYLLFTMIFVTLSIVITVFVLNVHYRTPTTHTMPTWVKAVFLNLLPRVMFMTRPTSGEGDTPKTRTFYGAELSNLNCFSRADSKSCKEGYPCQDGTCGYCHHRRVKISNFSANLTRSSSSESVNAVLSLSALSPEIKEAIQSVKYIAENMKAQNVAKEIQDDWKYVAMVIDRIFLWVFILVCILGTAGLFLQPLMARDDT
Neuronal acetylcholine receptor; alpha3/beta2, sequence (P12390 whole entry): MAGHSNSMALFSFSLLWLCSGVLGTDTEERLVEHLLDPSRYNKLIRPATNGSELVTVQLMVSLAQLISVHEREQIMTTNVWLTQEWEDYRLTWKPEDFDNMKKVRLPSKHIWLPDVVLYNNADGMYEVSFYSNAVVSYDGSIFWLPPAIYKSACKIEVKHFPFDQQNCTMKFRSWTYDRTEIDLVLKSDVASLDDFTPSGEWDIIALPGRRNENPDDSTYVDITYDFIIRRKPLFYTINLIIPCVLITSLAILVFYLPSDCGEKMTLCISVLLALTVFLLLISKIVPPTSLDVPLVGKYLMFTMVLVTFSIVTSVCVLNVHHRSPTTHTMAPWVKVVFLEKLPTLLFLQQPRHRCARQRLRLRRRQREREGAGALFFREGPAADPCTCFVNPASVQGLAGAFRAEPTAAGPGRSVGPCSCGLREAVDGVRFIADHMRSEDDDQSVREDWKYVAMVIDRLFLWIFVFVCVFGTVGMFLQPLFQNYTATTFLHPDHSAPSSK
For assay [2], the target named is Neuronal acetylcholine receptor; alpha4/beta4 (Rattus norvegicus, UniProt P09483+P12392). Nature of the assay: Inhibition of rat alpha4/beta4 nAChR expressed in Stage V-VI Xenopus laevis Oocytes assessed as inhibition of acetylcholine-induced current in presence of acetylcholine by electrophysiological recording. Format: cell-based, Oocyte.
Neuronal acetylcholine receptor; alpha4/beta4, sequence (P09483 whole entry): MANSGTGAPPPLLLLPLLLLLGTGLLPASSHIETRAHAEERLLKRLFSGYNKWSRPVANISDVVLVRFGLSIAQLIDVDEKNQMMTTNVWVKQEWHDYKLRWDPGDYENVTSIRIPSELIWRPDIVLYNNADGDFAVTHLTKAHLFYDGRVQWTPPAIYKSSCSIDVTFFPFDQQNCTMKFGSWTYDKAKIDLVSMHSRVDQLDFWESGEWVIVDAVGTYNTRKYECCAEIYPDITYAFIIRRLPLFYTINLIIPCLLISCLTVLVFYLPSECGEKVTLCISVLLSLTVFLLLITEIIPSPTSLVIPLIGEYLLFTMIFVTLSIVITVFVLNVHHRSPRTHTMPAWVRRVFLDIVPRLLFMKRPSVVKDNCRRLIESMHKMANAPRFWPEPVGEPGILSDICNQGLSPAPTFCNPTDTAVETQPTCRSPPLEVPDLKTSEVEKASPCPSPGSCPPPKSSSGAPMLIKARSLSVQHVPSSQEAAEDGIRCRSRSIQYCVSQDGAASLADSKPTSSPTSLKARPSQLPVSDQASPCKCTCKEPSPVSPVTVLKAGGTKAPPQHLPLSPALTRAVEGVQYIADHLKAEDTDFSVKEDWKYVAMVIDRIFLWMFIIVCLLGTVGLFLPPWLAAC
Neuronal acetylcholine receptor; alpha4/beta4, sequence (P12392 whole entry): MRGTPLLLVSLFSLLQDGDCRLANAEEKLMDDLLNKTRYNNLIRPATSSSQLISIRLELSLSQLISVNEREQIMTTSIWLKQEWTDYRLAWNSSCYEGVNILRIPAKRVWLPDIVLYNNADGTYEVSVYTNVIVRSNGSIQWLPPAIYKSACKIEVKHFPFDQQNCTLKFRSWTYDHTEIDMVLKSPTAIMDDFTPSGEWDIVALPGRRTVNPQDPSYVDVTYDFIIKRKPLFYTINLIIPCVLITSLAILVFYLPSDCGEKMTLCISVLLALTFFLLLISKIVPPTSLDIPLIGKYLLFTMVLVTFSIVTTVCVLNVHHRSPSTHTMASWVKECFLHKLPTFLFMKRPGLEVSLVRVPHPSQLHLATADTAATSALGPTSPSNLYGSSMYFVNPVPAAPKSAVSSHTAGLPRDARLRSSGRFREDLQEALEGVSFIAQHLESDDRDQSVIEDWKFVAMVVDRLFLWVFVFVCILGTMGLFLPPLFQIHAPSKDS
In assay [3] the target is Neuronal acetylcholine receptor subunit alpha-7 (Rattus norvegicus) (UniProt Q05941). Nature of the assay: Inhibition of rat alpha7 nAChR expressed in Stage V-VI Xenopus laevis Oocytes assessed as inhibition of acetylcholine-induced current at 10 uM in presence of acetylcholine by electrophysiological recording relative to control. In kind it is cell-based. To be noted: Oocyte.
Neuronal acetylcholine receptor subunit alpha-7 (Rattus norvegicus), sequence (Q05941 whole entry): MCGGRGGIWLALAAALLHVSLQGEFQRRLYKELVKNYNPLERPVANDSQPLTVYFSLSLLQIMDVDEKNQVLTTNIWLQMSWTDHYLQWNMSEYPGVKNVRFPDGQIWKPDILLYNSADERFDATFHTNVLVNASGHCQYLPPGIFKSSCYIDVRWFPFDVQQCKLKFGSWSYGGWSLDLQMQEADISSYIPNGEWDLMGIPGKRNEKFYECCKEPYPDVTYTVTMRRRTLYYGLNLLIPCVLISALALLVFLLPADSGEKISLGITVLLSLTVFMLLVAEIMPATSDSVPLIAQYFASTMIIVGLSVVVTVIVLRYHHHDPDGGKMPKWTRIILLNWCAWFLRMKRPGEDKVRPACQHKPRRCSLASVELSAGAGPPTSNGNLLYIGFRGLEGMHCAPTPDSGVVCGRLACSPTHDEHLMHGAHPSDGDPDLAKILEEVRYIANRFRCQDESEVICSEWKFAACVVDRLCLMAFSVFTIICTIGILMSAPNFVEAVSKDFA

Assay [4] can be described thus: Inhibition of rat alpha6/alpha3beta4 D161A mutant nAChR expressed in Stage V-VI Xenopus laevis Oocytes assessed as inhibition of acetylcholine-induced current in presence of acetylcholine by electrophysiological recording. Format: cell-based. The following applies: Oocyte.
In assay [5] the target is Neuronal acetylcholine receptor; alpha2/beta2 (Rattus norvegicus, UniProt P12389+P12390). As to the kind of experiment: Inhibition of rat alpha2/beta2 nAChR expressed in Stage V-VI Xenopus laevis Oocytes assessed as inhibition of acetylcholine-induced current in presence of acetylcholine by electrophysiological recording. Format: cell-based, Oocyte.
Neuronal acetylcholine receptor; alpha2/beta2, sequence (P12389 whole entry): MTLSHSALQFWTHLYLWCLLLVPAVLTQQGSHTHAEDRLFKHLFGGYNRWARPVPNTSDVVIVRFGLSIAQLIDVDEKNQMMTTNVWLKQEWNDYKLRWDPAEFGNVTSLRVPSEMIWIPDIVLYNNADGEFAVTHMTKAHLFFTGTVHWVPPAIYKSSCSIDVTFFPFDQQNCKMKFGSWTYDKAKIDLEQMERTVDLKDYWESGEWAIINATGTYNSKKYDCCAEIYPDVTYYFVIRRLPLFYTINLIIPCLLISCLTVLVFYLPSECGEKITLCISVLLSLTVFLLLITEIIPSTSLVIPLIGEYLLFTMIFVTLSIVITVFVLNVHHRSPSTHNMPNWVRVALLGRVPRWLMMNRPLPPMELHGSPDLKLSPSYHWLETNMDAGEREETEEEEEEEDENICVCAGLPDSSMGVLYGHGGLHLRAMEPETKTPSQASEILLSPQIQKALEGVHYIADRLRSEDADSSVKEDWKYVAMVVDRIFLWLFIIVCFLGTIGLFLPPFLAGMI
Neuronal acetylcholine receptor; alpha2/beta2, sequence (P12390 whole entry): as the sequence (P12390 whole entry) above
Assay [6] has as its target Nicotinic acetylcholine receptor alpha9/alpha10 (Rattus norvegicus, UniProt P43144+Q9JLB5). As to the kind of experiment: Inhibition of rat alpha9/alpha10 nAChR expressed in Stage V-VI Xenopus laevis Oocytes assessed as inhibition of acetylcholine-induced current in presence of acetylcholine by electrophysiological recording. In kind it is cell-based, Oocyte.
Assay [7] deals with Oocyte. Nature of the assay: Inhibition of rat alpha6/alpha3beta4 K57T mutant nAChR expressed in Stage V-VI Xenopus laevis Oocytes assessed as acetylcholine-induced current response at 100 uM in presence of 100 uM acetylcholine by electrophysiological recording relative to control. Format: cell-based.
Assay [8] deals with Oocyte. As to the kind of experiment: Inhibition of rat alpha6/alpha3 E195A mutant beta4 nAChR expressed in Stage V-VI Xenopus laevis Oocytes assessed as inhibition of acetylcholine-induced current by measuring recovery time at 10 uM preincubated with compound for 5 mins followed by washout in presence of acetylcholine by electrophysiological recording. Format: cell-based.
Assay [9] is described as follows: Inhibition of rat alpha6/alpha3beta4 K57T mutant nAChR expressed in Stage V-VI Xenopus laevis Oocytes assessed as inhibition of acetylcholine-induced current in presence of acetylcholine by electrophysiological recording. In kind it is cell-based. The following applies: Oocyte.
The target in assay [10] is Neuronal acetylcholine receptor subunit alpha-7 (Rattus norvegicus, UniProt Q05941). Nature of the assay: Inhibition of rat alpha7 nAChR expressed in Stage V-VI Xenopus laevis Oocytes assessed as inhibition of acetylcholine-induced current in presence of acetylcholine by electrophysiological recording. Format: cell-based, Oocyte.
Neuronal acetylcholine receptor subunit alpha-7, sequence (Q05941 whole entry): as the sequence (Q05941 whole entry) above
The target in assay [11] is Neuronal acetylcholine receptor; alpha2/beta2 (Rattus norvegicus) (UniProt P12389+P12390). As to the kind of experiment: Inhibition of rat alpha2/beta2 nAChR expressed in Stage V-VI Xenopus laevis Oocytes assessed as inhibition of acetylcholine-induced current at 10 uM in presence of acetylcholine by electrophysiological recording relative to control. Format: cell-based. To be noted: Oocyte.

Assay [12] can be described thus: Inhibition of rat alpha6/alpha3beta4 E34M mutant nAChR expressed in Stage V-VI Xenopus laevis Oocytes assessed as inhibition of acetylcholine-induced current in presence of acetylcholine by electrophysiological recording. In kind it is cell-based. To be noted: Oocyte.
For assay [13], the target named is Neuronal acetylcholine receptor; alpha3/beta4 (Rattus norvegicus, UniProt P04757+P12392). Nature of the assay: Inhibition of rat alpha3/beta4 nAChR expressed in Stage V-VI Xenopus laevis Oocytes assessed as inhibition of acetylcholine-induced current in presence of acetylcholine by electrophysiological recording. Format: cell-based, Oocyte.
Neuronal acetylcholine receptor; alpha3/beta4, sequence (P04757 whole entry): as the sequence (P04757 whole entry) above
Neuronal acetylcholine receptor; alpha3/beta4, sequence (P12392 whole entry): as the sequence (P12392 whole entry) above
The target in assay [14] is T1, Nicotinic acetylcholine receptor alpha6/alpha3/beta4 (Rattus norvegicus) (UniProt P04757+P12392+P43143). Nature of the assay: Inhibition of rat alpha6/alpha3beta4 nAChR expressed in Stage V-VI Xenopus laevis Oocytes assessed as inhibition of acetylcholine-induced current by measuring recovery time at 10 uM preincubated with compound for 5 mins followed by washout in presence of acetylcholine by electrophysiological recording. In kind it is cell-based. The following applies: Oocyte.

Assay [15] deals with Oocyte. As to the kind of experiment: Inhibition of rat alpha6/alpha3beta4 K57T mutant nAChR expressed in Stage V-VI Xenopus laevis Oocytes assessed as acetylcholine-induced current response at 1 uM in presence of 100 uM acetylcholine by electrophysiological recording relative to control. In kind it is cell-based.
Assay [16] has as its target Neuronal acetylcholine receptor; alpha4/beta2 (Rattus norvegicus, UniProt P09483+P12390). As to the kind of experiment: Inhibition of rat alpha4/beta2 nAChR expressed in Stage V-VI Xenopus laevis Oocytes assessed as inhibition of acetylcholine-induced current in presence of acetylcholine by electrophysiological recording. Format: cell-based, Oocyte.
Assay [17] addresses Neuronal acetylcholine receptor; alpha3/beta4 (Rattus norvegicus) (UniProt P04757+P12392). Nature of the assay: Inhibition of rat alpha3/beta4 nAChR expressed in Stage V-VI Xenopus laevis Oocytes assessed as inhibition of acetylcholine-induced current at 10 uM in presence of acetylcholine by electrophysiological recording relative to control. In kind it is cell-based. The following applies: Oocyte.

Assay [18] deals with Neuronal acetylcholine receptor; alpha4/beta4 (Rattus norvegicus) (UniProt P09483+P12392). Nature of the assay: Inhibition of rat alpha4/beta4 nAChR expressed in Stage V-VI Xenopus laevis Oocytes assessed as inhibition of acetylcholine-induced current at 10 uM in presence of acetylcholine by electrophysiological recording relative to control. In kind it is cell-based. To be noted: Oocyte.

The target of assay [19] is Nicotinic acetylcholine receptor alpha9/alpha10 (Rattus norvegicus) (UniProt P43144+Q9JLB5). As to the kind of experiment: Inhibition of rat alpha9/alpha10 nAChR expressed in Stage V-VI Xenopus laevis Oocytes assessed as inhibition of acetylcholine-induced current at 10 uM in presence of acetylcholine by electrophysiological recording relative to control. Format: cell-based. The following applies: Oocyte.

The species named for assay [20] is Rattus norvegicus. As to the kind of experiment: Selectivity index, ratio of IC50 for rat alpha6/alpha3beta4 K57T mutant nAChR expressed in Stage V-VI Xenopus laevis oocytes to IC50 for rat alpha6/alpha3beta4 nAChR expressed in Stage V-VI Xenopus laevis Oocytes by electrophysiological recording. Format: cell-based.
In assay [21] the target is T1, Nicotinic acetylcholine receptor alpha6/alpha3/beta4 (Rattus norvegicus). As to the kind of experiment: Inhibition of rat alpha6/alpha3beta4 nAChR expressed in Stage V-VI Xenopus laevis Oocytes assessed as acetylcholine-induced current response at 1 uM in presence of 100 uM acetylcholine by electrophysiological recording relative to control. In kind it is cell-based. Set-up: scale not given: the % may be the effect or the level left. To be noted: Oocyte.

The subject of assay [22] is Oocyte. Nature of the assay: Inhibition of rat alpha6/alpha3 D152A mutant beta4 nAChR expressed in Stage V-VI Xenopus laevis Oocytes assessed as acetylcholine-induced current response at 100 nM in presence of 100 uM acetylcholine by electrophysiological recording relative to control. In kind it is cell-based. Set-up: scale not given: the % may be the effect or the level left.

The target of assay [23] is Nicotinic acetylcholine receptor alpha6/alpha3/beta2/beta3 (Rattus norvegicus) (UniProt P04757+P12390+P12391+P43143). As to the kind of experiment: Inhibition of rat alpha6/alpha3beta2beta3 nAChR expressed in Stage V-VI Xenopus laevis Oocytes assessed as inhibition of acetylcholine-induced current at 10 uM in presence of acetylcholine by electrophysiological recording. Format: cell-based. The following applies: Oocyte.

In assay [24] the target is T1, Nicotinic acetylcholine receptor alpha6/alpha3/beta4 (Rattus norvegicus). Nature of the assay: Inhibition of rat alpha6/alpha3beta4 nAChR expressed in Stage V-VI Xenopus laevis Oocytes assessed as acetylcholine-induced current response at 100 nM in presence of 100 uM acetylcholine by electrophysiological recording relative to control. In kind it is cell-based. The following applies: Oocyte.

Nicotinic acetylcholine receptor alpha9/alpha10, sequence (P43144 whole entry): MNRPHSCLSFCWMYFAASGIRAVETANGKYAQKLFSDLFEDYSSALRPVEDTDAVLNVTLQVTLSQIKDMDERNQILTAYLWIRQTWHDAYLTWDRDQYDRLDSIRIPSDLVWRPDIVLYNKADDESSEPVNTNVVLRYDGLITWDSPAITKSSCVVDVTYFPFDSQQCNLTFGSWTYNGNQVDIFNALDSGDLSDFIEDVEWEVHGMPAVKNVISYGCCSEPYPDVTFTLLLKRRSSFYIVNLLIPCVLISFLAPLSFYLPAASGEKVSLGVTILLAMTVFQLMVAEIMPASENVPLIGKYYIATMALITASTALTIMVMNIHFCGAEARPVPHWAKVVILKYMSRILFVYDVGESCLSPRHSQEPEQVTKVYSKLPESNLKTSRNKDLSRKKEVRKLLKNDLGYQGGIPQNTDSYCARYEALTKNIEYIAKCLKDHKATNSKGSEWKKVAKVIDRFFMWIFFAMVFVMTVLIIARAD
Nicotinic acetylcholine receptor alpha9/alpha10, sequence (Q9JLB5 whole entry): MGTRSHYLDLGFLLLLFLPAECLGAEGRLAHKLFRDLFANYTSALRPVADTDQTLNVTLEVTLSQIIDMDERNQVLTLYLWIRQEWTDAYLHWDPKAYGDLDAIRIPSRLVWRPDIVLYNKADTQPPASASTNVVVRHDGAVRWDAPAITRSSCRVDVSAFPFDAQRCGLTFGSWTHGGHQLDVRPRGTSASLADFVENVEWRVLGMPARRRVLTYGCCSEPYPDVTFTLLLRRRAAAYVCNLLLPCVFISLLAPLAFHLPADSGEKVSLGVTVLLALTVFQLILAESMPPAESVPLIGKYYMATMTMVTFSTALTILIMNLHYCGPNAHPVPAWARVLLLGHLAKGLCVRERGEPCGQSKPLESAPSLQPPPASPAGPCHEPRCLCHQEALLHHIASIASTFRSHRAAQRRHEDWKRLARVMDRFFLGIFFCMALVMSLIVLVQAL
Neuronal acetylcholine receptor; alpha4/beta2, sequence (P09483 whole entry): as the sequence (P09483 whole entry) above
Neuronal acetylcholine receptor; alpha4/beta2, sequence (P12390 whole entry): as the sequence (P12390 whole entry) above

For `CC(C)[C@H](NC(=O)[C@@H]1CCCN1C(=O)[C@H](CC(N)=O)NC(=O)[C@H](C)NC(=O)[C@H](CS)NC(=O)[C@H](CS)NC(=O)[C@@H](N)CCCNC(=N)N)C(=O)N[C@@H](CS)C(=O)N[C@@H](CC(N)=O)C(=O)NCC(=O)N[C@@H](CCCCN)C(=O)N[C@@H](Cc1cnc[nH]1)C(=O)N[C@@H](CS)C(N)=O` (H-RCCANPVCNGKHC-NH2), the IC50 in [1] is greater than 10 µM; in assay [2] it was greater than 10 µM; in assay [4], 0.063 µM; in [5], greater than 10 µM; in assay [6] it was greater than 10 µM; in assay [9], 0.134 µM. For the same molecule, the half-maximal inhibitory concentration (IC50) in assay [10] was greater than 10 µM; in assay [12] it was 0.0185 µM; in [13], greater than 10 µM; in assay [16], greater than 10 µM. The inhibition in [3] is less than 50%; in assay [7] it was 43.2%; in [11], less than 50%; in assay [15], 92.7%; in assay [17], less than 50%; in assay [18], less than 50%. Also, the inhibition in assay [19] is less than 50%; in [24], 85.5%. Moreover, the results for the TIME in assay [8] and in [14] were 0.0167 h and 0.333 h, respectively. Moreover, the Ratio IC50 in [20] came out at 7. Besides, the Activity stood at 96% in assay [21] and 22.6% in assay [22]. For the same molecule, the inhibition result in [23] is “inactive”.
